# Patent US7612064B2, “Sulfopyrroles” (Takeda Pharmaceutical Company Limited, priority 2003, dated 2009)
# Legend:
# [1] = system: HeLa; test: MTS proliferation assay; format: cell-based, human; details: 72 h
# In short: (§1)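 Proliferation is assessed by MTS conversion, measured as 492 nm absorption. Cells are treated for three days (72 h) with four compound concentrations between 0.3 and 10 μM.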
# [2] = system: Jurkat; test: MTS proliferation assay; format: cell-based, human; details: 72 h
# In short: as §1
# [3] = system: Jily; test: MTS proliferation assay; format: cell-based; details: 72 h
# In short: as §1
# [4] = system: MRC5; test: MTS proliferation assay; format: cell-based; details: MRC5, 72 h
# In short: as §1
# [5] = Hoechst 33342 nuclear staining; format: cell-based; details: for Hoechst 33342 nuclear staining score, H460: H460 cells; for Hoechst 33342 nuclear staining score, HeLa: HeLa cells; for Hoechst 33342 nuclear staining score, Jily: Jily cells; for Hoechst 33342 nuclear staining score, Jurkat: Jurkat cells; for Hoechst 33342 nuclear staining score, MRC5: MRC5 cells;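 on all read-outs here: apoptotic nuclei scored 0 none 1 weak under 50% of cells 2 strong over 50% of cells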
# In short: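 After a further 30 min incubation, plates were inspected on a standard inverted fluorescence microscope. The fraction of apoptotic nuclei and other apoptosis-specific morphology were scored as 0 for no activity, 1 for weak activity in less than 50% of the cells, and 2 for strong activity in more than 50% of the cells.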
Structure (SMILES),IC50 [3] [nM],"Hoechst 33342 nuclear staining score, H460 ([5]; conc 0.1)","Hoechst 33342 nuclear staining score, H460 ([5]; conc 0.3)","Hoechst 33342 nuclear staining score, H460 ([5]; conc 1)","Hoechst 33342 nuclear staining score, H460 ([5]; conc 3)","Hoechst 33342 nuclear staining score, HeLa ([5]; conc 0.1)","Hoechst 33342 nuclear staining score, HeLa ([5]; conc 0.3)","Hoechst 33342 nuclear staining score, HeLa ([5]; conc 1)","Hoechst 33342 nuclear staining score, HeLa ([5]; conc 3)","Hoechst 33342 nuclear staining score, Jily ([5]; conc 0.1)","Hoechst 33342 nuclear staining score, Jily ([5]; conc 0.3)","Hoechst 33342 nuclear staining score, Jily ([5]; conc 1)","Hoechst 33342 nuclear staining score, Jily ([5]; conc 3)","Hoechst 33342 nuclear staining score, Jurkat ([5]; conc 0.1)","Hoechst 33342 nuclear staining score, Jurkat ([5]; conc 0.3)","Hoechst 33342 nuclear staining score, Jurkat ([5]; conc 1)","Hoechst 33342 nuclear staining score, Jurkat ([5]; conc 3)","Hoechst 33342 nuclear staining score, MRC5 ([5]; conc 0.1)","Hoechst 33342 nuclear staining score, MRC5 ([5]; conc 0.3)","Hoechst 33342 nuclear staining score, MRC5 ([5]; conc 1)",other results
COc1cc(-c2cc(-c3cccnc3)cn2S(=O)(=O)Cc2ccccc2)cc(OC)c1OC [Example 88],> 1000,0,0,0,0,0,0,0,0,0,0,0,0,0,0,0,0,0,0,0,"IC50 [1]: > 1000 nM; IC50 [2]: > 1000 nM; IC50 [4]: > 1000 nM; Hoechst 33342 nuclear staining score, MRC5 ([5]; conc 3): 0; Hoechst 33342 nuclear staining score, PBLs ([5]; conc 0.1): 0; Hoechst 33342 nuclear staining score, PBLs ([5]; conc 0.3): 0; Hoechst 33342 nuclear staining score, PBLs ([5]; conc 1): 0; Hoechst 33342 nuclear staining score, PBLs ([5]; conc 3): 0"
COc1cc(-c2cc(-c3cccnc3)cn2S(=O)(=O)c2ccccc2Cl)cc(OC)c1OC [Example 84],> 1000,0,0,0,0,0,0,0,0,0,0,0,0,0,0,0,0,0,0,0,"IC50 [1]: > 1000 nM; IC50 [2]: > 1000 nM; IC50 [4]: > 1000 nM; Hoechst 33342 nuclear staining score, MRC5 ([5]; conc 3): 0; Hoechst 33342 nuclear staining score, PBLs ([5]; conc 0.1): 0; Hoechst 33342 nuclear staining score, PBLs ([5]; conc 0.3): 0; Hoechst 33342 nuclear staining score, PBLs ([5]; conc 1): 0; Hoechst 33342 nuclear staining score, PBLs ([5]; conc 3): 0"
COc1ccc(S(=O)(=O)n2cc(CNc3ccc(N4CCOCC4)cc3)cc2-c2ccc(OC)cc2OC)cc1 [Example 96],> 1000,0,0,0,0,0,0,0,0,0,0,0,1 (weak activity comprising less than 50% of the cells),0,0,0,0,0,0,0,"IC50 [1]: > 1000 nM; IC50 [2]: > 1000 nM; IC50 [4]: > 1000 nM; Hoechst 33342 nuclear staining score, MRC5 ([5]; conc 3): 0; Hoechst 33342 nuclear staining score, PBLs ([5]; conc 0.1): 0; Hoechst 33342 nuclear staining score, PBLs ([5]; conc 0.3): 0; Hoechst 33342 nuclear staining score, PBLs ([5]; conc 1): 0; Hoechst 33342 nuclear staining score, PBLs ([5]; conc 3): 0"
COc1cc(-c2cc(-c3cccnc3)cn2S(=O)(=O)c2cccs2)cc(OC)c1OC [Example 90],< 1000,0,0,0,2 (strong activity comprising more than 50% of the cells),0,0,0,2 (strong activity comprising more than 50% of the cells),0,0,1 (weak activity comprising less than 50% of the cells),1 (weak activity comprising less than 50% of the cells),0,0,2 (strong activity comprising more than 50% of the cells),2 (strong activity comprising more than 50% of the cells),0,0,0,"IC50 [1]: > 1000 nM; IC50 [2]: < 1000 nM; IC50 [4]: > 1000 nM; Hoechst 33342 nuclear staining score, MRC5 ([5]; conc 3): 0; Hoechst 33342 nuclear staining score, PBLs ([5]; conc 0.1): 0; Hoechst 33342 nuclear staining score, PBLs ([5]; conc 0.3): 0; Hoechst 33342 nuclear staining score, PBLs ([5]; conc 1): 0; Hoechst 33342 nuclear staining score, PBLs ([5]; conc 3): 0"
"COc1ccc(S(=O)(=O)n2cc(-c3ccc(N)nc3)cc2-c2cc(OC)c(OC)c(OC)c2)cc1 [Example 100, 4-(2-Aminopyrid-5-yl)-1-p-methoxyphenylsulfonyl-2-(3,4,5-trimethoxyphenyl)-pyrrole]",< 200,0,2 (strong activity comprising more than 50% of the cells),2 (strong activity comprising more than 50% of the cells),2 (strong activity comprising more than 50% of the cells),0,2 (strong activity comprising more than 50% of the cells),2 (strong activity comprising more than 50% of the cells),2 (strong activity comprising more than 50% of the cells),0,2 (strong activity comprising more than 50% of the cells),2 (strong activity comprising more than 50% of the cells),2 (strong activity comprising more than 50% of the cells),0,2 (strong activity comprising more than 50% of the cells),2 (strong activity comprising more than 50% of the cells),2 (strong activity comprising more than 50% of the cells),0,1 (weak activity comprising less than 50% of the cells),2 (strong activity comprising more than 50% of the cells),"IC50 ([1]; Homo sapiens): < 200 nM; IC50 ([2]; Homo sapiens): < 200 nM; IC50 ([4]; Homo sapiens): < 200 nM; Hoechst 33342 nuclear staining score, MRC5 ([5]; conc 3): 2 (strong activity comprising more than 50% of the cells); Hoechst 33342 nuclear staining score, PBLs ([5]; conc 0.1): 0; Hoechst 33342 nuclear staining score, PBLs ([5]; conc 0.3): 0; Hoechst 33342 nuclear staining score, PBLs ([5]; conc 1): 0; Hoechst 33342 nuclear staining score, PBLs ([5]; conc 3): 0"
